Assay results: the NIST ThermoML archive (doi:10.1016/j.jct.2006.03.010)
± gives the expanded uncertainty stated by the source.

Tests used:
[1] = 101 kPa, Liquid; for speed of sound: Linear variable-path acoustic interferometer
[2] = xn = mol fraction of the nth substance listed; conditions: 101 kPa, Liquid, x2 = 0; for speed of sound: Linear variable-path acoustic interferometer

Structure (SMILES)	mass density ([1]; 298.15 K)	viscosity ([1]; 298.15 K)	speed of sound ([1]; 298.15 K)	mass density ([1]; 308.15 K)	viscosity ([1]; 308.15 K)	speed of sound ([1]; 308.15 K)	speed of sound ([2]; 298.15 K)	mass density ([2]; 298.15 K)	viscosity ([2]; 298.15 K)	speed of sound ([2]; 308.15 K)	mass density ([2]; 308.15 K)	viscosity ([2]; 308.15 K)
ClC(Cl)Cl [trichloromethane]	1478.82 ± 1.2 kg/m3	0.556 ± 0.01 mPa·s	985 ± 3 m/s	1459.45 ± 1.2 kg/m3	0.513 ± 0.009 mPa·s	950 ± 2 m/s						
CCCCO [butan-1-ol]	806.33 ± 0.5 kg/m3	2.585 ± 0.034 mPa·s	1235 ± 3 m/s	798.38 ± 0.54 kg/m3	2.012 ± 0.028 mPa·s	1210 ± 3 m/s						
CCO [ethanol] + ClC(Cl)Cl							1144 ± 3 m/s	784.32 ± 0.39 kg/m3	1.084 ± 0.014 mPa·s	1111 ± 3 m/s	775.51 ± 0.43 kg/m3	0.902 ± 0.013 mPa·s
CCO [ethanol]	784.32 ± 0.39 kg/m3	1.084 ± 0.014 mPa·s	1144 ± 3 m/s	775.51 ± 0.43 kg/m3	0.902 ± 0.013 mPa·s	1111 ± 3 m/s						

Other lines, results leading:

mass density ([1]; 298.15 K)	viscosity ([1]; 298.15 K)	speed of sound ([1]; 298.15 K)	mass density ([1]; 308.15 K)	viscosity ([1]; 308.15 K)	speed of sound ([1]; 308.15 K)	speed of sound ([2]; 298.15 K)	mass density ([2]; 298.15 K)	viscosity ([2]; 298.15 K)	speed of sound ([2]; 308.15 K)	mass density ([2]; 308.15 K)	viscosity ([2]; 308.15 K)	Structure (SMILES)
						1235 ± 3 m/s	806.33 ± 0.5 kg/m3	2.585 ± 0.034 mPa·s	1210 ± 3 m/s	798.38 ± 0.54 kg/m3	2.012 ± 0.028 mPa·s	CCCCO [butan-1-ol] + ClC(Cl)Cl
800.82 ± 0.4 kg/m3	1.95 ± 0.024 mPa·s	1212 ± 3 m/s	792.51 ± 0.44 kg/m3	1.533 ± 0.02 mPa·s	1177 ± 3 m/s							CCCO [propan-1-ol]
						1109 ± 3 m/s	786.3 ± 0.39 kg/m3	0.551 ± 0.009 mPa·s	1076 ± 3 m/s	776.6 ± 0.43 kg/m3	0.493 ± 0.009 mPa·s	CO [methanol] + ClC(Cl)Cl
786.3 ± 0.39 kg/m3	0.551 ± 0.009 mPa·s	1109 ± 3 m/s	776.6 ± 0.43 kg/m3	0.493 ± 0.009 mPa·s	1076 ± 3 m/s							CO [methanol]
						1212 ± 3 m/s	800.82 ± 0.4 kg/m3	1.95 ± 0.024 mPa·s	1177 ± 3 m/s	792.51 ± 0.44 kg/m3	1.533 ± 0.02 mPa·s	CCCO [propan-1-ol] + ClC(Cl)Cl
